The supplement of paper PMC12463676, “Small-molecule dissolution of stress granules by redox modulation benefits ALS models” (Nature Chemical Biology, 2025)

Key:
[1] = compound: NC(=O)CCCCC1CCSS1 [lipoamide]; assay: thermal stability z-score vs DMSO; higher = more thermally stabilized by treatment; details: HeLa, lipoamide concentration 100 µM
Experimental: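 Cellular thermal proteome profiling in HeLa cells. Cells were treated with 100 µM lipoamide for 1 h, with or without 1 mM arsenate for a further 1 h, then heated to ten temperatures (37-66.3 °C), and soluble protein was quantified by TMT mass spectrometry relative to 0.1% DMSO controls. The thermal stability score (sum of log2 fold changes minus the abundance score) was transformed to a z-score; mean of n = 3 experiments.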

[2] = compound: O=[As]([O-])(O)O.[K+] [potassium arsenate]; assay: as above; details: HeLa; arsenate concentration 1 mM
Experimental: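 Cellular thermal proteome profiling in HeLa cells treated with 1 mM arsenate for 1 h (DMSO pretreatment), heated to ten temperatures (37-66.3 °C). Soluble protein was quantified by TMT mass spectrometry relative to DMSO controls; the thermal stability score was transformed to a z-score; mean of n = 3 experiments.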

[3] = arsenate co-treatment: 1 mM arsenate 1 h
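Note: each temperature applied for 3 min, abundance score taken as mean log2 fold change at the two lowest temperatures, z-score obtained by mean subtraction and division by SD.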

## SAR1B (UniProt Q9Y6B6)
[1]; [3]
  thermal stability z-score: 0.0537
[1]; arsenate co-treatment: none
  thermal stability z-score: 0.376
[2]
  thermal stability z-score: 0.0901

## SARAF (UniProt Q96BY9)
[1]; [3]
  thermal stability z-score: -0.355
[1]; arsenate co-treatment: none
  thermal stability z-score: -0.0205
[2]
  thermal stability z-score: 0.00539

## SARS2 (UniProt Q9NP81)
[1]; [3]
  thermal stability z-score: -0.781
[1]; arsenate co-treatment: none
  thermal stability z-score: -0.828
[2]
  thermal stability z-score: -0.442

## SARS (UniProt P49591)
Sequence of UniProt P49591 (P49591 whole entry, looked up): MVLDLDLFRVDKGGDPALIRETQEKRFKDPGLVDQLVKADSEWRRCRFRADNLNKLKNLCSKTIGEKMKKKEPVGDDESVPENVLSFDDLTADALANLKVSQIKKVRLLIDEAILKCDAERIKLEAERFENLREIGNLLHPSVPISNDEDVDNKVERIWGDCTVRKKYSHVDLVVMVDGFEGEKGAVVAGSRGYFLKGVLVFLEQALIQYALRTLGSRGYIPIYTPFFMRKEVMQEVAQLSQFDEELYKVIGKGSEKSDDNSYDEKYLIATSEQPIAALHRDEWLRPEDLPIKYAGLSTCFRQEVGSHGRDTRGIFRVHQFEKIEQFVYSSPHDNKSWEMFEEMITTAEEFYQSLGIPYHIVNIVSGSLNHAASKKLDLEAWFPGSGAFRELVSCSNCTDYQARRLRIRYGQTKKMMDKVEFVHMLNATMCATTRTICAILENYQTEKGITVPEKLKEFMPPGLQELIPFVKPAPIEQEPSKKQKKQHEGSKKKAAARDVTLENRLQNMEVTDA
[1]; [3]
  thermal stability z-score: 1.63
[1]; arsenate co-treatment: none
  thermal stability z-score: 1.23
[2]
  thermal stability z-score: 2.1

## SART1 (UniProt O43290)
[1]; [3]
  thermal stability z-score: 0.898
[1]; arsenate co-treatment: none
  thermal stability z-score: 0.374
[2]
  thermal stability z-score: -2.05

## SART3 (UniProt Q15020)
[1]; [3]
  thermal stability z-score: -0.326
[1]; arsenate co-treatment: none
  thermal stability z-score: 0.203
[2]
  thermal stability z-score: -1.04

## SASS6 (UniProt Q6UVJ0)
Sequence of UniProt Q6UVJ0 (Q6UVJ0 whole entry): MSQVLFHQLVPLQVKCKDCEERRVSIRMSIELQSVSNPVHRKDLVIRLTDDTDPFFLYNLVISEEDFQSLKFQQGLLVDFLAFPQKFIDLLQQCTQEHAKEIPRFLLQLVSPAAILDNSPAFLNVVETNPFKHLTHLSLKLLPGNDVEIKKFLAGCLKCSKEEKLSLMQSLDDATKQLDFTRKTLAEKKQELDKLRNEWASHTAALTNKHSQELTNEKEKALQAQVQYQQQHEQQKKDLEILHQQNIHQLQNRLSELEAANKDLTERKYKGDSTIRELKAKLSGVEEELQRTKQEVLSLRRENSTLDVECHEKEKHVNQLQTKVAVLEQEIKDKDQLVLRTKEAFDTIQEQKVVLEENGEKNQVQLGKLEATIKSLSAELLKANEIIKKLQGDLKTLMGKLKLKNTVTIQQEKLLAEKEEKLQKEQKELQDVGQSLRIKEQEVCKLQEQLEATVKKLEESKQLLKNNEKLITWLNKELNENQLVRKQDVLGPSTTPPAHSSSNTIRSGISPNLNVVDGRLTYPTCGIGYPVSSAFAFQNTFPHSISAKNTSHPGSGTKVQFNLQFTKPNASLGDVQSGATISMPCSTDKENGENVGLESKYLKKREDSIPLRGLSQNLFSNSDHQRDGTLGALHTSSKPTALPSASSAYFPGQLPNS
[1]; [3]
  thermal stability z-score: -0.579
[1]; arsenate co-treatment: none
  thermal stability z-score: -0.207
[2]
  thermal stability z-score: -0.481

## SAT2 (UniProt Q96F10)
[1]; [3]
  thermal stability z-score: 0.538
[1]; arsenate co-treatment: none
  thermal stability z-score: 0.492
[2]
  thermal stability z-score: 0.614

## SBDS (UniProt Q9Y3A5)
[1]; [3]
  thermal stability z-score: 0.328
[1]; arsenate co-treatment: none
  thermal stability z-score: 0.706
[2]
  thermal stability z-score: 0.306

## SBF1 (UniProt O95248)
Sequence of UniProt O95248 (O95248 whole entry): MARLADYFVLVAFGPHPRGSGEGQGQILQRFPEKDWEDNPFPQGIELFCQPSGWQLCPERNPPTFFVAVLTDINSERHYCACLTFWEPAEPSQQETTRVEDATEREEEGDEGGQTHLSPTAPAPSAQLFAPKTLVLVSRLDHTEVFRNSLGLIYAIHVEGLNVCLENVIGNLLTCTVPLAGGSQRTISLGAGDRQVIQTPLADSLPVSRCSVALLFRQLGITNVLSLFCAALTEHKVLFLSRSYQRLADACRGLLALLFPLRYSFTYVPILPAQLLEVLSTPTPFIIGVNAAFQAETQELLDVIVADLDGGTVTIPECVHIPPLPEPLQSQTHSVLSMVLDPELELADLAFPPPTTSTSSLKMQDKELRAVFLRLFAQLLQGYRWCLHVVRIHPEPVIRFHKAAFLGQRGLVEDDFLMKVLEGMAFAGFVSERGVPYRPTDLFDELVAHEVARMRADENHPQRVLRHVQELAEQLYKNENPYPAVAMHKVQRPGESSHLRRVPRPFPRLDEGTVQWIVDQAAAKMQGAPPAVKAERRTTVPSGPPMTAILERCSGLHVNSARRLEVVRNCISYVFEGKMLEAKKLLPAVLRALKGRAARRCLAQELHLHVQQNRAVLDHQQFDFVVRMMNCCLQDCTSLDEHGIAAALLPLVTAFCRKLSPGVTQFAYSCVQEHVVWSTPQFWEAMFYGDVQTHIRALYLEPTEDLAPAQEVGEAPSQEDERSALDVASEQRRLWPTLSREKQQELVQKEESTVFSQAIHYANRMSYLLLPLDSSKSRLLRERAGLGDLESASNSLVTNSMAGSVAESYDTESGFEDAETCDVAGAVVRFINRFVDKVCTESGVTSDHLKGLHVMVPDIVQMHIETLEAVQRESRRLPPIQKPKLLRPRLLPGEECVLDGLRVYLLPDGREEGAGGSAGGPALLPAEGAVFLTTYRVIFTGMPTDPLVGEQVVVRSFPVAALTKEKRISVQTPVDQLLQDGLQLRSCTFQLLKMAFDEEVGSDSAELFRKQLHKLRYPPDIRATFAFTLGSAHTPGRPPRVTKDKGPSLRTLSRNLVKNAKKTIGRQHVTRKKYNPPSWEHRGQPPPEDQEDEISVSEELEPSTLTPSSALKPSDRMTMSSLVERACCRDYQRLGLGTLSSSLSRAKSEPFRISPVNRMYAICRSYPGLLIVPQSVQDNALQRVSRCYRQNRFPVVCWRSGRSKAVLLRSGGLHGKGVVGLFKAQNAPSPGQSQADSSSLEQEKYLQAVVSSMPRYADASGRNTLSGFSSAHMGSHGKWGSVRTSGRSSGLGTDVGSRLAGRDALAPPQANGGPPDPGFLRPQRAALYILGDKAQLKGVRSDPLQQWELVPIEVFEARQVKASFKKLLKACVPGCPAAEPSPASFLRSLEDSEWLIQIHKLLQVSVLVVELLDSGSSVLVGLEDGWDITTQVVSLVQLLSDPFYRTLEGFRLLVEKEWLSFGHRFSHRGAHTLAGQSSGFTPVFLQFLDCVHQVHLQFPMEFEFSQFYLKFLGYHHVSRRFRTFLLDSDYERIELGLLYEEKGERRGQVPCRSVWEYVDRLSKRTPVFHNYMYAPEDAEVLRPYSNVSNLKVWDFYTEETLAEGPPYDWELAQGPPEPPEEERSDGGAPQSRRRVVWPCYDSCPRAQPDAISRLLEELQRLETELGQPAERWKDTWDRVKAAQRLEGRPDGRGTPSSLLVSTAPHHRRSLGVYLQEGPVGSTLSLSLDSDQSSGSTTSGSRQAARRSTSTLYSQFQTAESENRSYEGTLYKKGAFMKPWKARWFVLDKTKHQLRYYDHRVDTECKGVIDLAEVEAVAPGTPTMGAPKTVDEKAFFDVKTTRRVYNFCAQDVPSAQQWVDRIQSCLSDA
[1]; [3]
  thermal stability z-score: -0.316
[1]; arsenate co-treatment: none
  thermal stability z-score: 0.227
[2]
  thermal stability z-score: -0.338

## SBF2 (UniProt Q86WG5)
[1]; [3]
  thermal stability z-score: -0.149
[1]; arsenate co-treatment: none
  thermal stability z-score: -0.0174
[2]
  thermal stability z-score: -0.179

## SBNO1 (UniProt A3KN83)
[1]; [3]
  thermal stability z-score: 0.158
[1]; arsenate co-treatment: none
  thermal stability z-score: 0.686
[2]
  thermal stability z-score: 0.146

## SCAF4 (UniProt O95104)
[1]; [3]
  thermal stability z-score: 0.0769
[1]; arsenate co-treatment: none
  thermal stability z-score: 0.184
[2]
  thermal stability z-score: 0.0697

## SCAF8 (UniProt Q9UPN6)
[1]; [3]
  thermal stability z-score: -0.0718
[1]; arsenate co-treatment: none
  thermal stability z-score: -0.03
[2]
  thermal stability z-score: 0.155

## SCAF11 (UniProt Q99590)
[1]; [3]
  thermal stability z-score: 1.24
[1]; arsenate co-treatment: none
  thermal stability z-score: 0.982
[2]
  thermal stability z-score: -1.02

## SCAMP1 (UniProt O15126)
Sequence of UniProt O15126 (O15126 whole entry): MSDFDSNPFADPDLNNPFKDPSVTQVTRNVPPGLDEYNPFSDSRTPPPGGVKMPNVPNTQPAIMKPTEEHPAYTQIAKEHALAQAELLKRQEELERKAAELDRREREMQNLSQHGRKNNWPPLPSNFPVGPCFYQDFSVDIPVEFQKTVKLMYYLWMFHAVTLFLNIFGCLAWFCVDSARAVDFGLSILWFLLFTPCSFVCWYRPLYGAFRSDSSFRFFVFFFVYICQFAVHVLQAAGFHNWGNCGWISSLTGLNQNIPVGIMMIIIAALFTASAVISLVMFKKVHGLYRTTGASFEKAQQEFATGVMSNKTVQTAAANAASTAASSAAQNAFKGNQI
[1]; [3]
  thermal stability z-score: 0.621
[1]; arsenate co-treatment: none
  thermal stability z-score: 0.765
[2]
  thermal stability z-score: 0.0619

## SCAMP2 (UniProt O15127)
[1]; [3]
  thermal stability z-score: 0.21
[1]; arsenate co-treatment: none
  thermal stability z-score: -0.804
[2]
  thermal stability z-score: -1.4

## SCAMP3 (UniProt O14828)
[1]; [3]
  thermal stability z-score: 0.525
[1]; arsenate co-treatment: none
  thermal stability z-score: 0.319
[2]
  thermal stability z-score: -0.277

## SCAMP4 (UniProt Q969E2)
[1]; [3]
  thermal stability z-score: 0.196
[1]; arsenate co-treatment: none
  thermal stability z-score: 0.377
[2]
  thermal stability z-score: 0.0173

## SCAP (UniProt Q12770)
[1]; [3]
  thermal stability z-score: -1.13
[1]; arsenate co-treatment: none
  thermal stability z-score: 0.0662
[2]
  thermal stability z-score: -0.473

## SCARB1 (UniProt Q8WTV0)
[1]; [3]
  thermal stability z-score: 0.0511
[1]; arsenate co-treatment: none
  thermal stability z-score: 0.144
[2]
  thermal stability z-score: 0.58

## SCARB2 (UniProt Q14108)
[1]; [3]
  thermal stability z-score: 0.111
[1]; arsenate co-treatment: none
  thermal stability z-score: 0.346
[2]
  thermal stability z-score: 0.368

## SCCPDH (UniProt Q8NBX0)
[1]; [3]
  thermal stability z-score: 0.163
[1]; arsenate co-treatment: none
  thermal stability z-score: 0.0672
[2]
  thermal stability z-score: 0.139

## SCD (UniProt O00767)
Sequence of UniProt O00767 (O00767 whole entry): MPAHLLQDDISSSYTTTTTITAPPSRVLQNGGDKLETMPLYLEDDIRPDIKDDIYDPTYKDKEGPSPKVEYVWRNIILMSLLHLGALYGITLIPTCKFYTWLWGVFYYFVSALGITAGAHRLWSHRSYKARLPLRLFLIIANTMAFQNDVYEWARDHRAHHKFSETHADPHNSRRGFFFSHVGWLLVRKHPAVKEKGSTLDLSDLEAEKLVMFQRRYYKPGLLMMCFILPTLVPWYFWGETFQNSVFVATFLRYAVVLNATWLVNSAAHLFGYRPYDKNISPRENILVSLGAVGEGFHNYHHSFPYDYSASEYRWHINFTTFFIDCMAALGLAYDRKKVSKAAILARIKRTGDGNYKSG
[1]; [3]
  thermal stability z-score: -1.45
[1]; arsenate co-treatment: none
  thermal stability z-score: -2.34
[2]
  thermal stability z-score: 1.66

## SCFD1 (UniProt Q8WVM8)
[1]; [3]
  thermal stability z-score: -0.771
[1]; arsenate co-treatment: none
  thermal stability z-score: -0.32
[2]
  thermal stability z-score: 0.224

## SCFD2 (UniProt Q8WU76)
[1]; [3]
  thermal stability z-score: 0.0156
[1]; arsenate co-treatment: none
  thermal stability z-score: -0.09
[2]
  thermal stability z-score: 0.043

## SCLY (UniProt Q96I15)
[1]; [3]
  thermal stability z-score: 0.111
[1]; arsenate co-treatment: none
  thermal stability z-score: 0.27
[2]
  thermal stability z-score: -0.415

## SCML2 (UniProt Q9UQR0)
[1]; [3]
  thermal stability z-score: -0.0267
[1]; arsenate co-treatment: none
  thermal stability z-score: -0.0968
[2]
  thermal stability z-score: -0.22

## SCNM1 (UniProt Q9BWG6)
[1]; [3]
  thermal stability z-score: -0.00102
[1]; arsenate co-treatment: none
  thermal stability z-score: 0.278
[2]
  thermal stability z-score: 0.418

## SCO1 (UniProt O75880)
[1]; [3]
  thermal stability z-score: -2.79
[1]; arsenate co-treatment: none
  thermal stability z-score: -2.65
[2]
  thermal stability z-score: 3.03

## SCO2 (UniProt O43819)
[1]; [3]
  thermal stability z-score: -0.169
[1]; arsenate co-treatment: none
  thermal stability z-score: 0.0623
[2]
  thermal stability z-score: 0.538

## SCP2 (UniProt P22307)
Sequence of UniProt P22307 (P22307 whole entry): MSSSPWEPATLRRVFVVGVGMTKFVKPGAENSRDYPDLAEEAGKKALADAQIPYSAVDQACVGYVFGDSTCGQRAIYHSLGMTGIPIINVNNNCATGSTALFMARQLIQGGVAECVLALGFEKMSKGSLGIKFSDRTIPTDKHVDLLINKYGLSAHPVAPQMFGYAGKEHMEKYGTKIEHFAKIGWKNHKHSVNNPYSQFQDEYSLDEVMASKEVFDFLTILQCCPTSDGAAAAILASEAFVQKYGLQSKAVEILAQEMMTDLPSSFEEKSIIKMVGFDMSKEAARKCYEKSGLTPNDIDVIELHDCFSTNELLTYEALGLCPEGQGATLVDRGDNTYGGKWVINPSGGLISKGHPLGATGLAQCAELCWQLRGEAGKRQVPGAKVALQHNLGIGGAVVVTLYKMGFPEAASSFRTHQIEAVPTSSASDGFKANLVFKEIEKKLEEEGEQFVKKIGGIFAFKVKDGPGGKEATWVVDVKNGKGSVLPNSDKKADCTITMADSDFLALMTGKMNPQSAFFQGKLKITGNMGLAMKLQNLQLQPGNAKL
[1]; [3]
  thermal stability z-score: 0.374
[1]; arsenate co-treatment: none
  thermal stability z-score: 0.0992
[2]
  thermal stability z-score: -0.257

## SCPEP1 (UniProt Q9HB40)
[1]; [3]
  thermal stability z-score: -0.372
[1]; arsenate co-treatment: none
  thermal stability z-score: 0.187
[2]
  thermal stability z-score: -0.196

## SCRIB
[1]; [3]
  thermal stability z-score: -0.00971
[1]; arsenate co-treatment: none
  thermal stability z-score: -0.22
[2]
  thermal stability z-score: 0.128

## SCRN2 (UniProt Q96FV2)
[1]; [3]
  thermal stability z-score: 0.553
[1]; arsenate co-treatment: none
  thermal stability z-score: -0.0583
[2]
  thermal stability z-score: -0.185

## SCRN3 (UniProt Q0VDG4)
[1]; [3]
  thermal stability z-score: -0.445
[1]; arsenate co-treatment: none
  thermal stability z-score: -0.169
[2]
  thermal stability z-score: -0.0506

## SCYL1 (UniProt Q96KG9)
[1]; [3]
  thermal stability z-score: -0.269
[1]; arsenate co-treatment: none
  thermal stability z-score: -0.198
[2]
  thermal stability z-score: -0.278

## SCYL2 (UniProt Q6P3W7)
[1]; [3]
  thermal stability z-score: -0.369
[1]; arsenate co-treatment: none
  thermal stability z-score: -0.657
[2]
  thermal stability z-score: -0.414

## SCYL3 (UniProt Q8IZE3)
[1]; [3]
  thermal stability z-score: -0.406
[1]; arsenate co-treatment: none
  thermal stability z-score: -0.146
[2]
  thermal stability z-score: -0.314

## SDAD1 (UniProt Q9NVU7)
[1]; [3]
  thermal stability z-score: 0.0663
[1]; arsenate co-treatment: none
  thermal stability z-score: -0.0856
[2]
  thermal stability z-score: -0.469

## SDCBP (UniProt O00560)
[1]; [3]
  thermal stability z-score: 0.541
[1]; arsenate co-treatment: none
  thermal stability z-score: 0.425
[2]
  thermal stability z-score: 0.364

## SDE2 (UniProt Q6IQ49)
Sequence of UniProt Q6IQ49 (Q6IQ49 whole entry, looked up): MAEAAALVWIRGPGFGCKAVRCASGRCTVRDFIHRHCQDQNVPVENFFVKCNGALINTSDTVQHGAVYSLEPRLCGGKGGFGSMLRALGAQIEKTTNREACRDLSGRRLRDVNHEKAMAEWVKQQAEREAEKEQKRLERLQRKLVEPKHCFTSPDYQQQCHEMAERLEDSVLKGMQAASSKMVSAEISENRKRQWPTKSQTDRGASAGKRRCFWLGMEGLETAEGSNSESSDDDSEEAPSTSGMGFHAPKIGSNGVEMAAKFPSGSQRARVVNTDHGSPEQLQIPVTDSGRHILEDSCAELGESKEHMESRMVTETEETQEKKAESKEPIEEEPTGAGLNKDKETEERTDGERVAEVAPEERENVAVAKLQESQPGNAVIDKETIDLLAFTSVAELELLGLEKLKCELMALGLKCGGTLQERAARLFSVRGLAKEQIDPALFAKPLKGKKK
[1]; [3]
  thermal stability z-score: -0.399
[1]; arsenate co-treatment: none
  thermal stability z-score: -0.282
[2]
  thermal stability z-score: -1.16

## SDF2 (UniProt Q99470)
[1]; [3]
  thermal stability z-score: -3.1
[1]; arsenate co-treatment: none
  thermal stability z-score: -2.94
[2]
  thermal stability z-score: 0.21

## SDF2L1 (UniProt Q9HCN8)
Sequence of UniProt Q9HCN8 (Q9HCN8 whole entry): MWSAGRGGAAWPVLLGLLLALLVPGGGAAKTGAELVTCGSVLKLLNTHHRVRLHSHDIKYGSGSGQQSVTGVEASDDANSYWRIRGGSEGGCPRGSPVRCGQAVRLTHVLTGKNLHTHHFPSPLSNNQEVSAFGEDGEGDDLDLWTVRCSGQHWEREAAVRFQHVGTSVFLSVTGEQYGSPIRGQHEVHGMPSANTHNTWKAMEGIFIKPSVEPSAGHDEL
[1]; [3]
  thermal stability z-score: -2.27
[1]; arsenate co-treatment: none
  thermal stability z-score: -1.73
[2]
  thermal stability z-score: 0.265

## SDF4 (UniProt Q9BRK5)
[1]; [3]
  thermal stability z-score: -1.8
[1]; arsenate co-treatment: none
  thermal stability z-score: -1.61
[2]
  thermal stability z-score: 0.389

## SDHA (UniProt P31040)
[1]; [3]
  thermal stability z-score: -0.493
[1]; arsenate co-treatment: none
  thermal stability z-score: -0.532
[2]
  thermal stability z-score: -1.17

## SDHAF3 (UniProt Q9NRP4)
[1]; [3]
  thermal stability z-score: -0.644
[1]; arsenate co-treatment: none
  thermal stability z-score: -0.535
[2]
  thermal stability z-score: -0.145

## SDHAF4 (UniProt Q5VUM1)
[1]; [3]
  thermal stability z-score: 0.0401
[1]; arsenate co-treatment: none
  thermal stability z-score: -0.258
[2]
  thermal stability z-score: -1.53

## SDHB (UniProt P21912)
[1]; [3]
  thermal stability z-score: -0.24
[1]; arsenate co-treatment: none
  thermal stability z-score: -0.16
[2]
  thermal stability z-score: -0.681

## SDR16C5 (UniProt Q8N3Y7)
[1]; [3]
  thermal stability z-score: -0.26
[1]; arsenate co-treatment: none
  thermal stability z-score: -0.252
[2]
  thermal stability z-score: 0.0129

## SDR39U1 (UniProt Q9NRG7)
[1]; [3]
  thermal stability z-score: 0.717
[1]; arsenate co-treatment: none
  thermal stability z-score: 0.0552
[2]
  thermal stability z-score: 0.471

## SDSL (UniProt Q96GA7)
[1]; [3]
  thermal stability z-score: 0.0811
[1]; arsenate co-treatment: none
  thermal stability z-score: 1.46
[2]
  thermal stability z-score: -0.745

## SEC11A (UniProt P67812)
[1]; [3]
  thermal stability z-score: -2.78
[1]; arsenate co-treatment: none
  thermal stability z-score: -1.58
[2]
  thermal stability z-score: 0.475

## SEC11C (UniProt Q9BY50)
[1]; [3]
  thermal stability z-score: -0.973
[1]; arsenate co-treatment: none
  thermal stability z-score: -0.842
[2]
  thermal stability z-score: 0.222

## SEC13 (UniProt P55735)
[1]; [3]
  thermal stability z-score: 0.378
[1]; arsenate co-treatment: none
  thermal stability z-score: 0.46
[2]
  thermal stability z-score: 0.729
